# Reference: patent US20120283313A1, “INHIBITION AND TREATMENT OF PROSTATE CANCER METASTASIS” (NORTHWESTERN UNIVERSITY, priority 2007, published 2012)
# Entries after “also recorded” stand apart in the source; their conditions may differ. Like-named read-outs stand apart in the source and are kept apart here.
# What was measured:
# [1] = system: human prostate cancer (PCa) cell lines; assay: cell invasion assay of PCa cell lines with genistein / siMEK4; type: cell-based
# From the text: MEK expression was examined in six human prostate cancer (PCa) cell lines: PC3 and PC3-M metastatic PCa cells, 1532CPTX and 1542 CPTX immortalized localized PCa cells, and 1532 NPTX and 1542 NPTX immortalized normal epithelial cells. The last four cell lines are primary cells, are HPV transformed, and thus represent early stages of prostate carcinogenesis. They provide representative members of the metastatic phenotype, as well as members of early state phenotypes. […] All six cell lines also secrete as well as respond to TGFβ, a regulator of cell motility that plays a role in PCa cell invasiveness.
# Assays were conducted using methods as described in Craft et al. (2008, Mol. Pharmocol., 73(1):235-242; herein incorporated by reference in its entirety).
# human PC3-M PCa cells = assay: orthotopic PC3-M implantation metastasis model in athymic mice
# [2] = system: prostate epithelial cells; assay: Phase 2 trial: LCM and 12K gene array of prostate epithelial cells; type: in vivo, human
# From the text: In particular, methodology was employed wherein prostate epithelial cells are selectively removed from human prostate tissue by laser capture microdissection (LCM), the resultant RNA linear amplified, and custom manufactured 12K gene arrays are probed. Ding, et al., Id.
# [3] = mice, free about a tenth of total
# [4] = system: prostate epithelial cells; assay: Phase 2 trial: nuclear morphology of prostate epithelial cells; type: in vivo, human; details: men, genistein treated vs controls
# From the text: Though morphologically “normal,” these cells are present within organs with PCa, have pre-cancer molecular changes, and represent an appropriate target cell type for therapy that inhibits a process associated with PCa progression, in this case, development of the metastatic phenotype. […] These findings are consistent with its effects in vitro and in mice.
# MMP-2 = assay: Phase 2 trial: MMP-2 transcript levels by LCM and qRT/PCR; type: in vivo, human; details: normal prostate epithelial cells, 2 mg genistein/kg/day, normalized to GAPDH
# [5] = men, 2 to 8 mg genistein/kg; cited from earlier work
# MEK4 = assay: TGFβ stimulated phosphorylation of MEK4 in vivo; type: cell-based
# Method: Phosphorylation by MEK4 (FIG. 4A) and phosphorylation of MEK4 (FIG. 7) was assayed. The Upstate Biotechnology MEK4 assay system was used to measure inhibition of MEK4 activity. Phosphorylation of MEK4 in vivo was assayed using standard techniques.
# PC3M cells = assay: quantitative image analysis of nuclear morphology, mouse tissue; type: in vivo, mice; details: 250 mg genistein vs controls
# From the text: Change in cell morphology is a generally recognized measure of change in cell adhesion. Compounds which increase cell adhesion of prostate cancer cells in vivo may inhibit prostate cancer metastasis. […] Quantitative image analysis according to established methods was used to measure in vivo changes in nuclear morphology in the prostate. (Bartels, et al., Prostate, 48:144-55, (2001); Boone, et al., Urology, 57:129-31 (2001); Bartels, et al., Anal. Quant. Cytol. Histol. 20:397-406 (1998); Bartels et al., Anal. Quant. Cytol. Histol. 20:389-96; Veltri, et al., J. Cell Biochem. Suppl., 151-57 (2000); herein incorporated by reference in their entireties).
# Mouse: From the mouse experiment of Example 5, primary (prostate gland) and metastatic (local lymph nodes) tissue was Feulgen-stained, and the nuclear morphology of PC3M cells was quantitated on a ChromaVision ACIS® II Image Analysis System. […] Specifically, for lymph node: cell area increased by 19.5±2.1%, cell length by 9.1±1.1%, and cell width by 9.5±1.1% (p:S 0.01 for all). For primary tumor: cell length increased by 3.0±1.1% (p:S 0.05).
# [6] = men, 2 mg genistein/kg/day for 1 month
# p38 MAP kinase = assay: Western blot of primary tumor tissue for p38 MAP kinase; type: in vivo, mice; details: fresh frozen primary tumor tissue
structure (smiles),measurement,setting,value
O=c1c(-c2ccc(O)cc2)coc2cc(O)cc(O)c12 [genistein],effect of genistein on invasiveness when MEK4 expression suppressed by siMEK4,"[1]; PCa cells, genistein plus siMEK4",the effect of genistein was abrogated
same,invasion of PCa cells,"[1]; early and late stage PCa cell lines, presence of genistein",inhibits invasion of both early and late stage PCa cells
same,tumor volume,"human PC3-M PCa cells; 0, 100, 250 mg genistein/kg chow",but not tumor volume
same,weight of mice,human PC3-M PCa cells; between dosing cohorts,no difference in the weight of mice between cohorts
same,"gene array expression level, mean (SE)","[2]; MALATI, genistein-treated subjects",8.22 (0.87)
same,"gene array expression level, mean (SE)","[2]; brain acid-soluble protein 1, genistein-treated subjects",13.3 (0.34)
same,"gene array expression level, mean (SE)","[2]; heat shock protein 90, genistein-treated subjects",8.51 (0.5)
same,"gene array expression level, mean (SE)","[2]; heparin cofactor II, genistein-treated subjects",2.19 (0.21)
same,"gene array expression level, mean (SE)","[2]; prostate acid phosphatase, genistein-treated subjects",6.85 (0.49)
same,"gene array expression level, mean (SE)","[2]; sorbitol dehydrogenase, genistein-treated subjects",5.33 (0.59)
same,estimated free concentration,[3]; 100 mg cohort,29 nM
same,estimated free concentration,[3]; 250 mg cohort,131 nM
same,increase in length (nuclear morphology),[4],1.5±0.7%
same,increase in width (nuclear morphology),[4],2.7±0.7%
same,increase in area (nuclear morphology),[4]; only a trend,2.0±1.0%
same,"MMP-2 transcript level, percent of controls (mean±SEM)",MMP-2,24±4.1%
same,peak concentration of total genistein,[5],4.3 to 16.3 nM
same,TGFβ stimulated phosphorylation of MEK4,MEK4,does not block TGF-β stimulated phosphorylation of MEK4 itself; also recorded: does not block such phosphorylation
same,increase in cell area,PC3M cells; lymph node,19.5±2.1%
same,increase in cell length,PC3M cells; lymph node,9.1±1.1%
same,increase in cell width,PC3M cells; lymph node,9.5±1.1%
same,increase in cell length,PC3M cells; primary tumor,3.0±1.1%
same,"trough concentration of free genistein, mean±SEM",[6],26.6 ± 6.6 nM
same,level of total p38 MAP kinase protein,p38 MAP kinase,total amount of p38 MAP kinase increased
same,phosphorylation of p38 MAP kinase,p38 MAP kinase,decreasing phosphorylation of p38 MAP kinase; also recorded: decreased its phosphorylation
